Test results reported in US9758529B2, “Fused dihydro-4H-pyrazolo[5,1-C][1,4]oxazinyl compounds and analogs for treating CNS disorders” (Sunovion Pharmaceuticals Inc., priority 2015, dated 2017).

These compounds were tested on mice (assay: Neuropharmacological Assay (SmartCube)). Details: i.p. 15 min before behavioral test; 3 doses, most efficacious dose(s) presented.
Assay type: in vivo
From the text: Neurosci. […] As reported in Roberds, because psychiatric diseases generally result from disorders of cell-cell communication or circuitry, intact systems are useful in detecting improvement in disease-relevant endpoints. These endpoints are typically behavioral in nature, often requiring human observation and interpretation. To facilitate testing of multiple compounds for behavioral effects relevant to psychiatric disease, PsychoGenics, Inc. (Tarrytown, N.Y., “PGI”) developed SmartCube™, an automated system in which behaviors of compound-treated mice are captured by digital video and analyzed with computer algorithms. […] PGI Analytical Systems uses data from SmartCube™ to compare the behavioral signature of a test compound to a database of behavioral signatures obtained using a large set of diverse reference compounds. (The composition of the database as well as validation of the method is further described in Roberds). In this way, the neuropharmacological effects of a test compound can be predicted by similarity to major classes of compounds, such as antipsychotics, anxiolytics and antidepressants.
The SmartCube™ system produces an activity signature indicating the probability that the activity of the test compound at the administered dose matches a given class of neuropharmacological agents. (See, e.g., Roberds, FIGS. 2 and 3). The test compound is simultaneously compared against multiple classes of agents; thus, a separate probability is generated for each behavioral effect measured (e.g., anxiolytic activity, analgesic activity, etc.). In Table 2 and 2B, these probabilities are reported for each behavioral effect measured as follows:
where LOQ is the limit of quantification.
Provided compounds were dissolved in a mixture of Pharmasolve™ (N-methyl-2-pyrrolidone), polyethylene glycol and propylene glycol, and were injected i.p. 15 min. before the behavioral test. For each compound, injections were administered at 3 different doses. For each behavioral effect measured, results for the most efficacious dose(s) are presented.
In the case of `c1ccc2c3n(nc2c1)CCOC3C1CNC1` (stereo not shown) [Compound 66, 3-(3,4-dihydro-1H-[1,4]oxazino[4,3-b]indazol-1-yl)azetidin-1-ium chloride], the “AD: ADHD (probability of class match)” value is reported as “+ (LOQ≦ + <5%)”, the “AG: analgesic (probability of class match)” value (from here on “AG: analgesic”) is reported as “++ (5%≦ ++ <25%)” and the “AX: anxiolytic (probability of class match)” value (“AX: anxiolytic” below) is reported as “++ (5%≦ ++ <25%)”. For the same compound, the “CE: cognitive enhancer (probability of class match)” value (“CE: cognitive enhancer” below) was “+ (LOQ≦ + <5%)”, the “DP: anti-depressant (probability of class match)” value (“DP: anti-depressant” below) was “++ (5%≦ ++ <25%)” and the “HA: hallucinogen (probability of class match)” value (“HA: hallucinogen” for short) was “+ (LOQ≦ + <5%)”. For the same compound, the “MS: mood stabilizer (probability of class match)” value (shortened to “MS: mood stabilizer”) was “+ (LOQ≦ + <5%)”, the “PS: anti-psychotic (probability of class match)” value (shortened to “PS: anti-psychotic”) was “+ (LOQ≦ + <5%)” and the “SD: sedative hypnotic (probability of class match)” value (from here on “SD: sedative hypnotic”) was “+ (LOQ≦ + <5%)”. For the same compound, the “UN: uncharacterized CNS activity (probability of class match)” value (“UN: uncharacterized CNS activity” below) was “+ (LOQ≦ + <5%)” and the “XG: anxiogenic (probability of class match)” value (from here on “XG: anxiogenic”) was “+ (LOQ≦ + <5%)”.
With `CC(C)N(C)CC1OCCCn2nc3ccccc3c21.Cl` (stereo not shown) [Compound 54, N-((4,5-dihydro-1H,3H-[1,4]oxazepino[4,3-b]indazol-1-yl)methyl)-N-methylpropan-2-aminium chloride] the “AD: ADHD (probability of class match)” value was “+ (LOQ≦ + <5%)”, the “AG: analgesic” value was “+ (LOQ≦ + <5%)” and the “AX: anxiolytic” value was “++ (5%≦ ++ <25%)”. For the same compound, the “CE: cognitive enhancer” value was “+ (LOQ≦ + <5%)”, the “DP: anti-depressant” value was “+ (LOQ≦ + <5%)” and the “HA: hallucinogen” value was “+ (LOQ≦ + <5%)”. The “MS: mood stabilizer” value was “+ (LOQ≦ + <5%)”, the “PS: anti-psychotic” value was “+ (LOQ≦ + <5%)” and the “SD: sedative hypnotic” value was “+ (LOQ≦ + <5%)”. For the same compound, the “UN: uncharacterized CNS activity” value was “+ (LOQ≦ + <5%)” and the “XG: anxiogenic” value was “+ (LOQ≦ + <5%)”.
In the case of `Cl.c1ccc2c3n(nc2c1)CCOC31CN2CCC1C2` (stereo not shown) [Compound 37, 3′,4′-dihydro-4-azaspiro[bicyclo[2.2.1]heptane-2,1′-[1,4]oxazino[4,3-b]indazol]-4-ium chloride], the “AD: ADHD (probability of class match)” value is reported as “+ (LOQ≦ + <5%)”, the “AG: analgesic” value is reported as “++ (5%≦ ++ <25%)” and the “AX: anxiolytic” value is reported as “++ (5%≦ ++ <25%)”. For the same compound, the “CE: cognitive enhancer” value was “++ (5%≦ ++ <25%)”, the “DP: anti-depressant” value was “++ (5%≦ ++ <25%)” and the “HA: hallucinogen” value was “+ (LOQ≦ + <5%)”. For the same compound, the “MS: mood stabilizer” value was “+ (LOQ≦ + <5%)”, the “PS: anti-psychotic” value was “++ (5%≦ ++ <25%)” and the “SD: sedative hypnotic” value was “++ (5%≦ ++ <25%)”. The “UN: uncharacterized CNS activity” value was “+++ (25%≦ +++ <50%)” and the “XG: anxiogenic” value was “+ (LOQ≦ + <5%)”.
`Cl.NCC1OCCCn2nc3ccccc3c21` (stereo not shown) [Compound 56, (4,5-dihydro-1H,3H-[1,4]oxazepino[4,3-b]indazol-1-yl)methanaminium chloride] was tested, and the “AD: ADHD (probability of class match)” value was “+ (LOQ≦ + <5%)”, the “AG: analgesic” value was “+ (LOQ≦ + <5%)” and the “AX: anxiolytic” value was “+ (LOQ≦ + <5%)”. The “CE: cognitive enhancer” value was “+ (LOQ≦ + <5%)”, the “DP: anti-depressant” value was “+ (LOQ≦ + <5%)” and the “HA: hallucinogen” value was “+ (LOQ≦ + <5%)”. The “MS: mood stabilizer” value was “+ (LOQ≦ + <5%)”, the “PS: anti-psychotic” value was “+ (LOQ≦ + <5%)” and the “SD: sedative hypnotic” value was “+ (LOQ≦ + <5%)”. For the same compound, the “UN: uncharacterized CNS activity” value was “+ (LOQ≦ + <5%)” and the “XG: anxiogenic” value was “+ (LOQ≦ + <5%)”.
`C[C@H](N)[C@H]1OCCn2nc3ccccc3c21` (relative stereo) [Compound 33, (+/−)-rel-(R)-1-((S)-3,4-dihydro-1H-[1,4]oxazino[4,3-b]indazol-1-yl) ethanaminium chloride] was tested, and the “AD: ADHD (probability of class match)” value was “++++ (50%≦ ++++)”, the “AG: analgesic” value was “++ (5%≦ ++ <25%)” and the “AX: anxiolytic” value was “++ (5%≦ ++ <25%)”. For the same compound, the “CE: cognitive enhancer” value was “+ (LOQ≦ + <5%)”, the “DP: anti-depressant” value was “++ (5%≦ ++ <25%)” and the “HA: hallucinogen” value was “++ (5%≦ ++ <25%)”. For the same compound, the “MS: mood stabilizer” value was “+ (LOQ≦ + <5%)”, the “PS: anti-psychotic” value was “+ (LOQ≦ + <5%)” and the “SD: sedative hypnotic” value was “+ (LOQ≦ + <5%)”. The “UN: uncharacterized CNS activity” value was “+++ (25%≦ +++ <50%)” and the “XG: anxiogenic” value was “+ (LOQ≦ + <5%)”.
For `CC(C)NCC1OCCn2nc3ccccc3c21` (stereo not shown) [Compound 17, N-((3,4-dihydro-1H-[1,4]oxazino[4,3-b]indazol-1-yl)methyl)propan-2-amine], the “AD: ADHD (probability of class match)” value was “+ (LOQ≦ + <5%)”, the “AG: analgesic” value was “+ (LOQ≦ + <5%)” and the “AX: anxiolytic” value was “++ (5%≦ ++ <25%)”. The “CE: cognitive enhancer” value was “+ (LOQ≦ + <5%)”, the “DP: anti-depressant” value was “++ (5%≦ ++ <25%)” and the “HA: hallucinogen” value was “+ (LOQ≦ + <5%)”. For the same compound, the “MS: mood stabilizer” value was “+ (LOQ≦ + <5%)”, the “PS: anti-psychotic” value was “+ (LOQ≦ + <5%)” and the “SD: sedative hypnotic” value was “+ (LOQ≦ + <5%)”. The “UN: uncharacterized CNS activity” value was “++ (5%≦ ++ <25%)” and the “XG: anxiogenic” value was “+ (LOQ≦ + <5%)”.
`c1ccc2c3n(nc2c1)CCOC3C1CCNCC1` (stereo not shown) [Compound 35, 4-(3,4-dihydro-1H-[1,4]oxazino[4,3-b]indazol-1-yl)piperidin-1-ium chloride] was tested, and the “AD: ADHD (probability of class match)” value was “+ (LOQ≦ + <5%)”, the “AG: analgesic” value was “+ (LOQ≦ + <5%)” and the “AX: anxiolytic” value was “+ (LOQ≦ + <5%)”. The “CE: cognitive enhancer” value was “+ (LOQ≦ + <5%)”, the “DP: anti-depressant” value was “+ (LOQ≦ + <5%)” and the “HA: hallucinogen” value was “+ (LOQ≦ + <5%)”. For the same compound, the “MS: mood stabilizer” value was “+ (LOQ≦ + <5%)”, the “PS: anti-psychotic” value was “+ (LOQ≦ + <5%)” and the “SD: sedative hypnotic” value was “+ (LOQ≦ + <5%)”. The “UN: uncharacterized CNS activity” value was “+ (LOQ≦ + <5%)” and the “XG: anxiogenic” value was “+ (LOQ≦ + <5%)”.
For `CN(C)CC1OCCn2nc3ccc(F)cc3c21.Cl` (stereo not shown) [Compound 8, 1-(9-fluoro-3,4-dihydro-1H-[1,4]oxazino[4,3-b]indazol-1-yl)-N,N-dimethylmethanaminium chloride], the “AD: ADHD (probability of class match)” value was “+ (LOQ≦ + <5%)”, the “AG: analgesic” value was “++ (5%≦ ++ <25%)” and the “AX: anxiolytic” value was “++ (5%≦ ++ <25%)”. For the same compound, the “CE: cognitive enhancer” value was “++ (5%≦ ++ <25%)”, the “DP: anti-depressant” value was “+++ (25%≦ +++ <50%)” and the “HA: hallucinogen” value was “+ (LOQ≦ + <5%)”. For the same compound, the “MS: mood stabilizer” value was “+ (LOQ≦ + <5%)”, the “PS: anti-psychotic” value was “++ (5%≦ ++ <25%)” and the “SD: sedative hypnotic” value was “+ (LOQ≦ + <5%)”. For the same compound, the “UN: uncharacterized CNS activity” value was “+ (LOQ≦ + <5%)” and the “XG: anxiogenic” value was “++ (5%≦ ++ <25%)”.
In the case of `c1ccc2c3n(nc2c1)CCOC31CNC1` [Compound 40, 3′,4′-dihydrospiro[azetidine-3,1′-[1,4]oxazino[4,3-b]indazol]-1-ium chloride], the “AD: ADHD (probability of class match)” value is reported as “+ (LOQ≦ + <5%)”, the “AG: analgesic” value is reported as “++ (5%≦ ++ <25%)” and the “AX: anxiolytic” value is reported as “+++ (25%≦ +++ <50%)”. For the same compound, the “CE: cognitive enhancer” value was “++ (5%≦ ++ <25%)”, the “DP: anti-depressant” value was “++ (5%≦ ++ <25%)” and the “HA: hallucinogen” value was “+ (LOQ≦ + <5%)”. The “MS: mood stabilizer” value was “+ (LOQ≦ + <5%)”, the “PS: anti-psychotic” value was “++ (5%≦ ++ <25%)” and the “SD: sedative hypnotic” value was “++ (5%≦ ++ <25%)”. The “UN: uncharacterized CNS activity” value was “+ (LOQ≦ + <5%)” and the “XG: anxiogenic” value was “+ (LOQ≦ + <5%)”.
For `Cl.NCC1OCCn2nc3cc(F)ccc3c21` (stereo not shown) [Compound 12, (8-fluoro-3,4-dihydro-1H-[1,4]oxazino[4,3-b]indazol-1-yl)methanaminium], the “AD: ADHD (probability of class match)” value was “+ (LOQ≦ + <5%)”, the “AG: analgesic” value was “+ (LOQ≦ + <5%)” and the “AX: anxiolytic” value was “+ (LOQ≦ + <5%)”. For the same compound, the “CE: cognitive enhancer” value was “+ (LOQ≦ + <5%)”, the “DP: anti-depressant” value was “+ (LOQ≦ + <5%)” and the “HA: hallucinogen” value was “+ (LOQ≦ + <5%)”. For the same compound, the “MS: mood stabilizer” value was “+ (LOQ≦ + <5%)”, the “PS: anti-psychotic” value was “+ (LOQ≦ + <5%)” and the “SD: sedative hypnotic” value was “+ (LOQ≦ + <5%)”. The “UN: uncharacterized CNS activity” value was “+ (LOQ≦ + <5%)” and the “XG: anxiogenic” value was “+ (LOQ≦ + <5%)”.
In the case of `CN(C)C[C@@H]1OCCn2nc3ccccc3c21` [Compound 3, (S)-(3,4-dihydro-1H-[1,4]oxazino[4,3-b]indazol-1-yl)-N,N-dimethylmethanaminium chloride], the “AD: ADHD (probability of class match)” value is reported as “+ (LOQ≦ + <5%)”, the “AG: analgesic” value is reported as “+ (LOQ≦ + <5%)” and the “AX: anxiolytic” value is reported as “+ (LOQ≦ + <5%)”. The “CE: cognitive enhancer” value was “+ (LOQ≦ + <5%)”, the “DP: anti-depressant” value was “++ (5%≦ ++ <25%)” and the “HA: hallucinogen” value was “+ (LOQ≦ + <5%)”. For the same compound, the “MS: mood stabilizer” value was “+ (LOQ≦ + <5%)”, the “PS: anti-psychotic” value was “++ (5%≦ ++ <25%)” and the “SD: sedative hypnotic” value was “+ (LOQ≦ + <5%)”. For the same compound, the “UN: uncharacterized CNS activity” value was “+++ (25%≦ +++ <50%)” and the “XG: anxiogenic” value was “+ (LOQ≦ + <5%)”.
